Values after ≈ are worked out from the molar mass of the structure shown.
Assays:
[1] = tested on: DHFR (human versus Mycobacterium tuberculosis H37Rv); experiment: Selectivity index, ratio of IC50 for human DHFR to IC50 for Mycobacterium tuberculosis H37Rv DHFR expressed in Escherichia coli BL21(DE3); type: toxicity; conditions: human and Mycobacterium tuberculosis H37Rv; read-out: Ratio IC50
[2] = Sub-acute toxicity in albino Wistar rat assessed as adverse effect at 1.25 to 10 mg/kg, po administered for 28 days; type: organism-based; conditions: in vivo, 672 h
[3] = Sub-acute toxicity in albino Wistar rat assessed as effect on clinical changes at 1.25 to 10 mg/kg, po administered for 28 days; type: organism-based; conditions: in vivo, 672 h
[4] = Sub-acute toxicity in albino Wistar rat assessed as mortality at 1.25 to 10 mg/kg, po administered for 28 days; type: organism-based; conditions: in vivo, 672 h
[5] = Sub-acute toxicity in albino Wistar rat assessed as effect on water intake at 1.25 to 10 mg/kg, po administered for 28 days measured post last dose; type: organism-based; conditions: in vivo, 672 h
[6] = Sub-acute toxicity in albino Wistar rat assessed as effect on food intake at 1.25 to 10 mg/kg, po administered for 28 days measured post last dose; type: organism-based; conditions: in vivo, 672 h
[7] = Sub-acute toxicity in albino Wistar rat assessed as change in body weight at 1.25 to 10 mg/kg, po administered for 28 days; type: organism-based; conditions: in vivo, 672 h
[8] = Sub-acute toxicity in albino Wistar rat assessed as effect on neurological changes at 1.25 to 10 mg/kg, po administered for 28 days; type: organism-based; conditions: in vivo, 672 h
[9] = Sub-acute toxicity in albino Wistar rat assessed as salivation at 1.25 to 10 mg/kg, po administered for 28 days; type: organism-based; conditions: in vivo, 672 h
[10] = Sub-acute toxicity in albino Wistar rat assessed as tremors at 1.25 to 10 mg/kg, po administered for 28 days; type: organism-based; conditions: in vivo, 672 h
[11] = Sub-acute toxicity in albino Wistar rat assessed as diarrhea at 1.25 to 10 mg/kg, po administered for 28 days; type: organism-based; conditions: in vivo, 672 h
[12] = Sub-acute toxicity in albino Wistar rat assessed as coma at 1.25 to 10 mg/kg, po administered for 28 days; type: organism-based; conditions: in vivo, 672 h
[13] = Sub-acute toxicity in albino Wistar rat assessed as change in respiration at 1.25 to 10 mg/kg, po administered for 28 days; type: organism-based; conditions: in vivo, 672 h
[14] = Sub-acute toxicity in albino Wistar rat assessed as change in autonomic nervous system at 1.25 to 10 mg/kg, po administered for 28 days; type: organism-based; conditions: in vivo, 672 h
[15] = Sub-acute toxicity in albino Wistar rat assessed as effect on eyes at 1.25 to 10 mg/kg, po administered for 28 days; type: organism-based; conditions: in vivo, 672 h
[16] = Sub-acute toxicity in albino Wistar rat assessed as effect on somatomotor system at 1.25 to 10 mg/kg, po administered for 28 days; type: organism-based; conditions: in vivo, 672 h
[17] = Sub-acute toxicity in albino Wistar rat assessed as change in ALT level at 1.25 mg/kg, po administered for 28 days measured post last dose (reference value: 12.19 +/- 1.78 U/L); type: organism-based; conditions: in vivo, 672 h
[18] = Sub-acute toxicity in albino Wistar rat assessed as change in serum protein level at 1.25 mg/kg, po administered for 28 days measured post last dose (reference value: […]); type: organism-based; conditions: in vivo, 672 h
[19] = Sub-acute toxicity in albino Wistar rat assessed as change in SOD level per mg protein at 1.25 mg/kg, po administered for 28 days measured post last dose (reference value: 4.85 +/- 0.34 U); type: organism-based; conditions: in vivo, 672 h
[20] = Sub-acute toxicity in albino Wistar rat assessed as change in CAT level per mg protein at 1.25 mg/kg, po administered for 28 days measured post last dose (reference value: 28.45 +/- 2.1 U); type: organism-based; conditions: in vivo, 672 h
[21] = Sub-acute toxicity in albino Wistar rat assessed as change in MDA level per mg protein at 1.25 mg/kg, po administered for 28 days measured post last dose (reference value: 0.91 +/- 0.1 nmol); type: organism-based; conditions: in vivo, 672 h
[22] = Sub-acute toxicity in albino Wistar rat assessed as change in ALT level at 2.5 mg/kg, po administered for 28 days measured post last dose (reference value: 12.19 +/- 1.78 U/L); type: organism-based; conditions: in vivo, 672 h
[23] = Sub-acute toxicity in albino Wistar rat assessed as change in hemoglobin level at 2.5 mg/kg, po administered for 28 days measured post last dose (reference value: 12.14 +/- 1.45 g%); type: organism-based; conditions: in vivo, 672 h
[24] = Sub-acute toxicity in albino Wistar rat assessed as change in SOD level per mg protein at 2.5 mg/kg, po administered for 28 days measured post last dose (reference value: 4.85 +/- 0.34 U); type: organism-based; conditions: in vivo, 672 h
[25] = Sub-acute toxicity in albino Wistar rat assessed as change in CAT level per mg protein at 2.5 mg/kg, po administered for 28 days measured post last dose (reference value: 28.45 +/- 2.1 U); type: organism-based; conditions: in vivo, 672 h
[26] = Sub-acute toxicity in albino Wistar rat assessed as change in Urea level at 5 mg/kg, po administered for 28 days measured post last dose (reference value: 24.54 +/- 2.12 mg/dl); type: organism-based; conditions: in vivo, 672 h
[27] = Sub-acute toxicity in albino Wistar rat assessed as change in serum protein level at 5 mg/kg, po administered for 28 days measured post last dose (reference value: […]); type: organism-based; conditions: in vivo, 672 h
[28] = Sub-acute toxicity in albino Wistar rat assessed as change in hemoglobin level at 5 mg/kg, po administered for 28 days measured post last dose (reference value: 12.14 +/- 1.45 g%); type: organism-based; conditions: in vivo, 672 h
[29] = Sub-acute toxicity in albino Wistar rat assessed as change in SOD level per mg protein at 5 mg/kg, po administered for 28 days measured post last dose (reference value: 4.85 +/- 0.34 U); type: organism-based; conditions: in vivo, 672 h
[30] = Sub-acute toxicity in albino Wistar rat assessed as change in CAT level per mg protein at 5 mg/kg, po administered for 28 days measured post last dose (reference value: 28.45 +/- 2.1 U); type: organism-based; conditions: in vivo, 672 h
[31] = Sub-acute toxicity in albino Wistar rat assessed as change in AST level at 10 mg/kg, po administered for 28 days measured post last dose (reference value: 25 +/- 1.76 U/L); type: organism-based; conditions: in vivo, 672 h
[32] = Sub-acute toxicity in albino Wistar rat assessed as change in ALT level at 10 mg/kg, po administered for 28 days measured post last dose (reference value: 12.19 +/- 1.78 U/L); type: organism-based; conditions: in vivo, 672 h
[33] = Sub-acute toxicity in albino Wistar rat assessed as change in SOD level per mg protein at 10 mg/kg, po administered for 28 days measured post last dose (reference value: 4.85 +/- 0.34 U); type: organism-based; conditions: in vivo, 672 h
[34] = tested on: Mycobacterium tuberculosis; experiment: microbe, parasite or virus in culture; conditions: H37Rv ATCC 27294, 168 h
Description: Antitubercular activity against Mycobacterium tuberculosis H37Rv ATCC 27294 after 7 days by microplate alamar blue method

With `CC(=O)c1c(C)n(Cc2ccccc2)c2ccc(OCc3cn(-c4ccc(Br)cc4)nn3)cc12` the selectivity ratio [1] was 18.4, the Activity [2] was “Non-Toxic” and the Activity [3] was “Non-Toxic”. The Activity [4] was “Non-Toxic”, the Activity [5] was “Non-Toxic” and the Activity [6] was “Non-Toxic”. For the same compound, the Activity [7] was “Toxic”, the Activity [8] was “Non-Toxic” and the Activity [9] was “Non-Toxic”. The Activity [10] was “Non-Toxic”, the Activity [11] was “Non-Toxic” and the Activity [12] was “Non-Toxic”. For the same compound, the Activity [13] was “Non-Toxic”, the Activity [14] was “Non-Toxic” and the Activity [15] was “Non-Toxic”. The Activity [16] was “Non-Toxic”, the Activity [17] was 13.09 U/L and the Activity [18] was 6.65 mg/dL. It also gave an Activity [19] of 4.95 U, an Activity [20] of 29.34 U and an Activity [21] of 0.95 nmol. For the same compound, the Activity [22] was 12.68 U/L, the Activity [23] was 12.83 g% and the Activity [24] was 5.01 U. The Activity [25] was 30.11 U, the Activity [26] was 26.43 mg/dL and the Activity [27] was 7.54 mg/dL. It also gave an Activity [28] of 13.45 g%, an Activity [29] of 5.21 U and an Activity [30] of 31.34 U. It also gave an Activity [31] of 26.98 U/L, an Activity [32] of 15.23 U/L and an Activity [33] of 5.56 U. The MIC [34] was 3.03 µM (≈ 1.56 µg/mL).
